The text below walks through data of patent publication US10562891B2, “Quinazolinones as PARP14 inhibitors” (Ribon Therapeutics Inc., priority 2017, dated 2020).

Counter-ions that a name gives are not always drawn.

The target of this assay is catalytic domain of human PARP14 (Homo sapiens (Human), UniProt Q460N5). The assay is described as follows: Enzymatic assay for inhibition of PARP14 (DELFIA, auto-modification with biotin-NAD). Format: biochemical. Particulars: auto-modification of PARP14 by biotin-NAD, 50 nM PARP14, 3 μM biotin-NAD. The protocol: An N-terminal His-TEV fusion tag was used to purify the protein from cell lysates. The His-TEV tag was left on the protein for use in the enzymatic assay.
Chain of catalytic domain of human PARP14 (Q460N5 1611-1801): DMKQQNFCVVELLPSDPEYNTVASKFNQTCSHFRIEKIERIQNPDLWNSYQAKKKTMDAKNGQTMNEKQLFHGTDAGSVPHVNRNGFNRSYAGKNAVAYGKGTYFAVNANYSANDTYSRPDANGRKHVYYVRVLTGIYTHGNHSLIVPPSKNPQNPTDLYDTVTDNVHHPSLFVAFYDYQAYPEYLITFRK
Enzymatic inhibition of PARP14 was measured using a dissociation-enhanced lanthanide fluorescence immunoassay (DELFIA) monitoring the auto-modification of PARP14 by biotinylated nicotinamide adenine dinucleotide (biotin-NAD). 1 μL of a dose response curve of each test compound was spotted in 384-well nickel-coated white microplates (Thermo) using a Mosquito (TTP Labtech). Reactions were performed in a 50 μL volume by adding 40 μL of PARP14 in assay buffer (20 mM HEPES pH==8, 100 mM NaCl, 0.1% bovine serum albumin, 2 mM DTT and 0.002%0 Tween20), incubating with test compound at 25° C. for 30 min, then adding 10 μL of biotin-NAD (Biolog). The final concentrations of PARP14 and biotin-NAD are 50 nM and 3 μM, respectively. Reactions proceeded at 25° C. for 3 h, then were quenched with 5 μL of 10 mM unmodified nicotinamide adenine dinucleotide (Sigma-Aldrich). The quenched reactions were washed 3 times with 100 μL of TBST wash buffer (50 mM Tris-HCl, 150 mM NaCl and 0.1% Tween20). Next, to the washed and dried plate was added 25 μL of DELFIA Europium-N1 streptavidin (Perkin Elmer) diluted in DELFIA assay buffer (Perkin Elmer). After a 30 min incubation at 25° C., the plate was washed 5 times with TBST wash buffer. Finally, 25 μL of DELFIA enhancement solution was added. After a 5 min incubation the plate was read on an Envision platereader equipped with a LANCE/DELFIA top mirror (Perkin Elmer) using excitation of 340 nm and emission of 615 nm to measure the amount of Europium present in each well, informing on the amount of biotin-NAD that was transferred in the automodification reaction.
[formula] where ex615cmpd is the emission from the compound treated well, ex615min is the emission from the rucaparib treated positive control well and ex615max is the emission from the DMSO treated negative control well.
The % inhibition values were plotted as a function of compound concentration and the following 4-parameter fit was applied to derive the IC50 values:
[formula] where top and bottom are normally allowed to float, but may be fixed at 100 or 0 respectively in a 3-parameter fit. The Hill Coefficient is normally allowed to float but may also be fixed at 1 in a 3-parameter fit. Y is the % inhibition and X is the compound concentration.

Regarding `CC(=O)N[C@H]1C[C@@H](SCc2nc3cc(OCC4CCOCC4)cc(F)c3c(=O)[nH]2)C1` [Example 387], the IC50 (usually the concentration that inhibits the measured activity by half) was less than 1000 nM.

Turning to `CC1(C)CC(COc2cc(F)c3c(=O)[nH]c(CS[C@H]4CC[C@H](O)CC4)nc3c2)CO1` (stereo partly drawn) [Example 355], the IC50 is less than 1000 nM. Next, `CS(=O)(=O)N1CCC[C@@H](Nc2ccc3c(=O)[nH]c(CS[C@H]4CC[C@H](O)CC4)nc3c2)C1` [Example 267, 2-(((Trans-4-hydroxycyclohexyl)thio)methyl)-7-(((R)-1-(methylsulfonyl)piperidin-3-yl)amino)quinazolin-4(3H)-one]: less than 1000 nM. With `Cc1cccc2nc(CSC3CCOCC3)[nH]c(=O)c12` [Example 9], the half-inhibitory concentration (IC50) lay in the range of 1000 to 10000 nM.

`NC(=O)[C@H]1CC[C@H](SCc2nc3cc(OCC4CCC4)cc(F)c3c(=O)[nH]2)CC1` [Example 311, Trans-4-(((7-(cyclobutylmethoxy)-5-fluoro-4-oxo-3,4-dihydroquinazolin-2-yl)methyl)thio)cyclohexane-1-carboxamide] came in with an IC50 of 1000 to 10000 nM.

In turn, `CC(=O)Nc1ccc2c(=O)[nH]c(CSC3CCOCC3)nc2c1` [Example 75, N-(4-Oxo-2-(((tetrahydro-2H-pyran-4-yl)thio)methyl)-3,4-dihydroquinazolin-7-yl)acetamide] registered an IC50 of more than 10000 nM.

On to `Cc1c(Oc2ccccc2)ccc2c(=O)[nH]c(CSC3CCOCC3)nc12` [Example 135, 8-Methyl-7-phenoxy-2-(((tetrahydro-2H-pyran-4-yl)thio)methyl)quinazolin-4(3H)-one], for which the IC50 was more than 10000 nM. With `CN1CC[C@@H](SCc2nc3cc(NC4CCCC4)cc(F)c3c(=O)[nH]2)[C@@H](F)C1` (relative stereo) [Example 413] the figure was less than 1000 nM; with `O=c1[nH]c(CS[C@H]2CC[C@H](O)CC2)nc2cc(NC3CCCC3(F)F)cc(F)c12` (stereo partly drawn) [Example 350], less than 1000 nM; with `Cc1cccc2c(=O)[nH]c(CS[C@H]3C[C@H](OCc4ccccc4)C3)nc12` [Example 38, 2-((((trans)-3-(Benzyloxy)cyclobutyl)thio)methyl)-8-methylquinazolin-4(3H)-one], more than 10000 nM. With `Cc1cccc2c(=O)[nH]c(CSC3CCOCC3)nc12` [Example 2] the figure was less than 1000 nM; with `CC(=O)N1CCC(COc2cc(F)c3c(=O)[nH]c(CS[C@H]4CC[C@H](O)CC4)nc3c2)CC1` [Example 396], less than 1000 nM; with `CC(=O)NC[C@H]1CC[C@H](SCc2nc3c(C)cccc3c(=O)[nH]2)CC1` [Example 178, N-(((trans)-4-(((8-methyl-4-oxo-3,4-dihydroquinazolin-2-yl)methyl)thio)cyclohexyl)methyl)acetamide], 1000 to 10000 nM. Turning to `Cc1ccc(F)c2c(=O)[nH]c(CSC3CCNCC3)nc12` [Example 51, 5-Fluoro-8-methyl-2-((piperidin-4-ylthio)methyl)quinazolin-4(3H)-one Hydrochloride], the half-maximal inhibitory concentration (IC50) was less than 1000 nM. Next, `O=c1[nH]c(CSC2CCN(CCC(F)(F)F)CC2)nc2cc(NC3CCCC3)ccc12` [Example 259, 7-(Cyclopentylamino)-2-(((1-(3,3,3-trifluoropropyl)piperidin-4-yl)thio)methyl)quinazolin-4(3H)-one]: less than 1000 nM. Consider `CN1CC[C@H](SCc2nc3cc(NC4CCCC4)cc(F)c3c(=O)[nH]2)[C@@H](F)C1` (relative stereo) [Example 412], for which the IC50 is less than 1000 nM.

On to `NC[C@H]1CC[C@@H](SCc2nc3cc(NC4CCCC4)cc(F)c3c(=O)[nH]2)CO1` (relative stereo) [Example 242, 2-((((cis)-6-(Aminomethyl)tetrahydro-2H-pyran-3-yl)thio)methyl)-7-(cyclopentylamino)-5-fluoroquinazolin-4(3H)-one bis Hydrochloride], for which the IC50 is 1000 to 10000 nM.

`Cc1cccc2c(=O)[nH]c(CS[C@H]3CC[C@H](C(N)=O)CC3)nc12` [Example 205, trans-4-(((8-Methyl-4-oxo-3,4-dihydroquinazolin-2-yl)methyl)thio)cyclohexane-1-carboxamide] registered an IC50 of less than 1000 nM.
